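Tested at 5 concentrations; 48 h exposure; 96-well plates; endpoints linearly interpolated, else capped at highest concentration. Here, GI50 denotes the concentration required for 50% inhibition of growth.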 Active and inactive are the calls of the source. Rule as the data show it: active = GI50 up to about 1.1 µM and inactive = higher.
Columns and labels:
Assay in all cases: NCI-60 cell line screen, 48 h
COLO 205 = test system: COLO 205
SR = test system: SR
HCT-15 = test system: HCT-15
NCI-H522 = test system: NCI-H522
Malme-3M = test system: Malme-3M
UACC-257 = test system: UACC-257
HOP-62 = test system: HOP-62
HL-60 = test system: HL-60
OVCAR-3 = test system: OVCAR-3
SK-MEL-2 = test system: SK-MEL-2
KM12 = test system: KM12
LOX IMVI = test system: LOX IMVI
IGROV-1 = test system: IGROV-1
A498 = test system: A498
CCRF-CEM = test system: CCRF-CEM
RXF 393 = test system: RXF 393
SK-OV-3 = test system: SK-OV-3

Row | Compound | GI50 (COLO 205) | GI50 (SR) | GI50 (HCT-15) [µM] | GI50 (NCI-H522) | GI50 (Malme-3M) | GI50 (UACC-257) | GI50 (HOP-62) | GI50 (HL-60) | GI50 (OVCAR-3) | GI50 (SK-MEL-2) | GI50 (KM12) | GI50 (LOX IMVI) | GI50 (IGROV-1) | GI50 (A498) | GI50 (CCRF-CEM) | GI50 (RXF 393) | GI50 (SK-OV-3)
1 | CCc1cccc(C)c1NC(=O)CC1C(=O)Nc2ccccc2[S+]1[O-] (stereo unspecified) | 39.2 µM (inactive) | 34 µM (inactive) | 35.6 | 31.1 µM (inactive) | 28.5 µM (inactive) | 31.8 µM (inactive) | 71.4 µM (inactive) | 28.4 µM (inactive) | 57.3 µM (inactive) | 43.5 µM (inactive) | 54.2 µM (inactive) | 44.5 µM (inactive) | – | – | – | – | –
2 | COc1cc2c(cc1O)CN1CCC23C=C[C@@H](O)CC13 (stereo partly specified) | 27.7 µM (inactive) | 40.6 µM (inactive) | 68.4 | 52.4 µM (inactive) | > 100 µM (inactive) | 79.4 µM (inactive) | > 100 µM (inactive) | 15.2 µM (inactive) | > 100 µM (inactive) | 44.8 µM (inactive) | 54 µM (inactive) | 46.6 µM (inactive) | 88.3 µM (inactive) | > 100 µM (inactive) | 28.2 µM (inactive) | 38.2 µM (inactive) | > 100 µM (inactive)
3 | C/C(CC(=O)Nc1ccc(Cl)c(Cl)c1)=N/NC(=O)C[N+](C)(C)C | 35.2 µM (inactive) | 22.5 µM (inactive) | > 100 | – | > 100 µM (inactive) | > 100 µM (inactive) | > 100 µM (inactive) | 44 µM (inactive) | > 100 µM (inactive) | > 100 µM (inactive) | > 100 µM (inactive) | 18.1 µM (inactive) | > 100 µM (inactive) | > 100 µM (inactive) | > 100 µM (inactive) | > 100 µM (inactive) | –
4 | CC1=C(C(=O)CC(=O)C(=O)NC2C3CC4CC(C3)CC2C4)Sc2ccccc2N1 (stereo unspecified) | > 31.6 µM (inactive) | – | > 71.4 | 97.5 µM (inactive) | > 100 µM (inactive) | > 100 µM (inactive) | > 100 µM (inactive) | > 100 µM (inactive) | > 100 µM (inactive) | > 100 µM (inactive) | > 86.3 µM (inactive) | > 100 µM (inactive) | > 100 µM (inactive) | > 100 µM (inactive) | – | > 100 µM (inactive) | > 31.6 µM (inactive)
5 | COC(=O)C(CCCN1C(=O)c2ccccc2C1=O)C(=O)OC | > 100 µM (inactive) | – | > 100 | > 100 µM (inactive) | > 100 µM (inactive) | > 100 µM (inactive) | > 100 µM (inactive) | > 100 µM (inactive) | > 100 µM (inactive) | > 100 µM (inactive) | > 100 µM (inactive) | > 100 µM (inactive) | > 100 µM (inactive) | > 100 µM (inactive) | > 100 µM (inactive) | > 100 µM (inactive) | > 100 µM (inactive)
6 | O=C1C(c2ccc([N+](=O)[O-])cc2)=[N+]([O-])c2ccccc21 | 11.1 µM (inactive) | 23.7 µM (inactive) | 17.3 | 8.57 µM (inactive) | 36.6 µM (inactive) | – | 32.4 µM (inactive) | 25.8 µM (inactive) | 19.9 µM (inactive) | > 100 µM (inactive) | 34.8 µM (inactive) | 21.1 µM (inactive) | 43.3 µM (inactive) | – | 22.9 µM (inactive) | 23.3 µM (inactive) | 77.6 µM (inactive)
7 | Cc1ccc(S(=O)(=O)OCC23CCC(CC2)C2CC23)cc1 (stereo unspecified) | 61.8 µM (inactive) | 30.2 µM (inactive) | 47.6 | – | 48.8 µM (inactive) | 28.6 µM (inactive) | 48.3 µM (inactive) | 17.4 µM (inactive) | 31.9 µM (inactive) | – | – | 42.7 µM (inactive) | > 100 µM (inactive) | 43.3 µM (inactive) | 39.7 µM (inactive) | – | > 100 µM (inactive)
8 | COC(=O)C1C=CCON2CCc3c(n(C)c4ccccc34)C12 (stereo unspecified) | > 100 µM (inactive) | > 100 µM (inactive) | > 100 | > 100 µM (inactive) | > 100 µM (inactive) | – | > 100 µM (inactive) | > 100 µM (inactive) | > 100 µM (inactive) | > 100 µM (inactive) | > 100 µM (inactive) | > 100 µM (inactive) | > 100 µM (inactive) | 46.6 µM (inactive) | > 100 µM (inactive) | > 100 µM (inactive) | > 100 µM (inactive)
9 | Cn1c(=O)nc2n(-c3ccc(Cl)cc3)c(-c3ccccc3)c(-c3ccccc3)nc-2c1=O | 33 µM (inactive) | – | 22.5 | 36.7 µM (inactive) | 28.4 µM (inactive) | 24.3 µM (inactive) | 25.3 µM (inactive) | 18.3 µM (inactive) | 21.7 µM (inactive) | 23.6 µM (inactive) | 23.8 µM (inactive) | – | 30.1 µM (inactive) | 49.3 µM (inactive) | 21.9 µM (inactive) | – | 40.3 µM (inactive)
10 | Cc1ccccc1NC(=O)c1cc2cc(/N=N/c3ccccc3C(=O)O)ccc2oc1=O | 12.9 µM (inactive) | – | 10.6 | 12.3 µM (inactive) | 6.75 µM (inactive) | 10.3 µM (inactive) | 21.4 µM (inactive) | 19.5 µM (inactive) | 34.8 µM (inactive) | 22.8 µM (inactive) | 12.6 µM (inactive) | 16.4 µM (inactive) | 25 µM (inactive) | – | 19.7 µM (inactive) | 17.4 µM (inactive) | 28.2 µM (inactive)
11 | Cc1noc2cccc(OCc3ccccc3)c12 | 52.1 µM (inactive) | 34.6 µM (inactive) | 50.8 | 13.2 µM (inactive) | > 100 µM (inactive) | 53.8 µM (inactive) | > 100 µM (inactive) | 17.3 µM (inactive) | 94.8 µM (inactive) | 23.8 µM (inactive) | 91.2 µM (inactive) | 51.3 µM (inactive) | 60.1 µM (inactive) | – | 13.5 µM (inactive) | 30.8 µM (inactive) | > 100 µM (inactive)
12 | Cc1nc2c(n1Cc1ccc(Cl)cc1)C(=O)c1ccccc1C2=O | > 75 µM (inactive) | 1.32 µM (inactive) | 1.07 | 5.52 µM (inactive) | 35.6 µM (inactive) | > 75 µM (inactive) | 20.8 µM (inactive) | 4.36 µM (inactive) | 67.3 µM (inactive) | > 75 µM (inactive) | > 75 µM (inactive) | 2.05 µM (inactive) | > 75 µM (inactive) | – | 4.67 µM (inactive) | 33.9 µM (inactive) | > 75 µM (inactive)
13 | CN(C)CCC(/C=C/c1ccccc1)=N\Nc1ccc(Cl)cc1 | 4.31 µM (inactive) | – | 3.01 | 3.24 µM (inactive) | 12.7 µM (inactive) | 4.18 µM (inactive) | 1.8 µM (inactive) | 2.18 µM (inactive) | 8.69 µM (inactive) | 2 µM (inactive) | 2.84 µM (inactive) | 1.59 µM (inactive) | 2.64 µM (inactive) | 7.66 µM (inactive) | 2.96 µM (inactive) | 6.05 µM (inactive) | 3.99 µM (inactive)
14 | COC(=O)[C@H]1[C@H]2C[C@@H]3c4[nH]c5cc(OC)ccc5c4CCN3C[C@H]2C[C@@H](OC(=O)c2cc(OC)c(OC)c(OC)c2)[C@@H]1OC [RESERPINE] | 15.7 µM (inactive) | 6.12 µM (inactive) | 20.3 | 17.9 µM (inactive) | 17.5 µM (inactive) | 15.6 µM (inactive) | 12.6 µM (inactive) | 14.2 µM (inactive) | 18.3 µM (inactive) | 19.3 µM (inactive) | 18.4 µM (inactive) | – | 21.5 µM (inactive) | – | 13.2 µM (inactive) | – | –
15 | CCCCCCCCCCCCCC(=O)OC1C(CO)OC(=O)C1O (stereo unspecified) | > 100 µM (inactive) | – | > 100 | – | > 100 µM (inactive) | > 100 µM (inactive) | > 100 µM (inactive) | 34.3 µM (inactive) | > 100 µM (inactive) | > 100 µM (inactive) | > 100 µM (inactive) | > 100 µM (inactive) | > 100 µM (inactive) | > 100 µM (inactive) | 89.9 µM (inactive) | > 100 µM (inactive) | > 100 µM (inactive)
16 | COc1cc([C@H]2c3cc4c(cc3[C@H](NCc3ccc([N+](=O)[O-])cc3)C3COC(=O)[C@H]32)OCO4)cc(OC)c1O (stereo partly specified) | 2.52 µM (inactive) | 0.0333 µM (active) | 1.61 | – | 1.56 µM (inactive) | 7.96 µM (inactive) | 0.26 µM (active) | 1.02 µM (active) | 3.08 µM (inactive) | 4.38 µM (inactive) | 2.44 µM (inactive) | 0.92 µM (active) | 12.3 µM (inactive) | 0.378 µM (active) | 0.251 µM (active) | 3.37 µM (inactive) | 2.24 µM (inactive)
17 | CCCCOC(=O)NC(=O)c1cn(C2CCCCC2)c(=O)[nH]c1=O | > 100 µM (inactive) | – | > 100 | 26.9 µM (inactive) | 31 µM (inactive) | > 100 µM (inactive) | 25.3 µM (inactive) | > 100 µM (inactive) | 40.6 µM (inactive) | 38 µM (inactive) | 86.1 µM (inactive) | 55.2 µM (inactive) | 39.2 µM (inactive) | 17.1 µM (inactive) | > 100 µM (inactive) | – | 20.9 µM (inactive)
18 | O=C(O)C1=C(C(=O)Nc2ccc(NC(=O)C3=C(C(=O)O)C4C=CC3C4)cc2)C2C=CC1C2 | > 100 µM (inactive) | > 100 µM (inactive) | > 100 | – | > 100 µM (inactive) | > 100 µM (inactive) | > 100 µM (inactive) | > 100 µM (inactive) | > 100 µM (inactive) | 69.7 µM (inactive) | > 100 µM (inactive) | > 100 µM (inactive) | > 100 µM (inactive) | > 100 µM (inactive) | > 100 µM (inactive) | > 100 µM (inactive) | > 100 µM (inactive)
